Drawing on publication PMC5439667, “Thermal stability and kinetic constants for 129 variants of a family 1 glycoside hydrolase reveal that enzyme activity and stability can be separately designed” (PLoS ONE, 2017), this text covers KM for one compound.

This assay deals with BglB (Paenibacillus polymyxa, UniProt P22505). As to the kind of experiment: Michaelis-Menten kinetics of […]-nitrophenol release (as in the previous study). It is filed as biochemical. The settings on record: wild type, batched replicates re-measured here; conditions of the kinetic assay not printed in the main text.
BglB, sequence (P22505 whole entry): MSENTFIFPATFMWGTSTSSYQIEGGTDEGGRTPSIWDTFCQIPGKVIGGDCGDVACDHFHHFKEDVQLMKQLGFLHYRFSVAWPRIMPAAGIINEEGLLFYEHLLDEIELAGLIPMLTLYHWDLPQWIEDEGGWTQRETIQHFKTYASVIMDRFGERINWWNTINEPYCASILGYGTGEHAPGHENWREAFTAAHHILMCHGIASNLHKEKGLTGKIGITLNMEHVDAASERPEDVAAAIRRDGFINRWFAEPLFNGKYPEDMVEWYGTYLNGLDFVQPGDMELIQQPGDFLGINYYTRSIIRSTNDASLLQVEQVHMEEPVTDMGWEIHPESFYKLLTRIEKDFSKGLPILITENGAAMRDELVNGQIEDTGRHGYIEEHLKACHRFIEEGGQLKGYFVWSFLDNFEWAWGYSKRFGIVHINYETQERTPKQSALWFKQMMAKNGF

With `O=[N+]([O-])c1ccc(O[C@@H]2O[C@H](CO)[C@@H](O)[C@H](O)[C@H]2O)cc1` [pNPG], the KM result is “batched replicates of the native BglB sequence”.
